{"source": "patent US10335365B2", "about": "“Bladder cancer specific ligand peptides” (The Regents of the University of California, priority 2009, dated 2019)", "key": {"whole blood cells": {"system": "whole blood cells", "test": "Whole cell bead binding assay, whole blood cells", "design": "species or system human", "details": "peptide on beads"}, "[1]": {"system": "12 cell lines with different origins", "test": "Whole cell bead binding assay, 12 cell lines of different origins", "design": "species or system human"}, "[2]": {"system": "cells isolated from urine specimens of patients actively treated with BCG intravesical therapy", "format": "binding, human", "details": "4 consecutive patients with no evidence of bladder cancer"}, "[3]": {"system": "cells from the normal specimen of the same bladder", "test": "Whole cell bead binding assay, cells from normal specimen of the same bladder", "design": "species or system human", "details": "beads coated with PLZ4; same cystectomy specimen", "protocol": "The beads were washed extensively with double-distilled water and phosphate-buffered saline (PBS) before screening. Bladder cancer cells and normal urothelial cells were detached from culture dishes with trypsin/EDTA or a Detach kit (PromoCell, Heidelberg, Germany), washed with their corresponding culture medium, resuspended at 10^6 cells/ml and incubated with OBOC beads in Petri dishes in a humidified CO2 incubator at 37° C. with shaking (60 rpm). Beads bound by cells appeared as rosettes with a central bead covered by a layer(s) of cells under a microscope. The positive beads were picked with a pipette under inverted microscope, treated with Quanidine HCl (8M, 20 min) to remove cells and proteins on beads surface, and underwent a second round of incubation with the same cells to confirm the binding. Only those beads with cell bindings at both rounds were sent for the amino acid sequencing as previously described (Peng, et al., Nat Chem Biol, (2006) 2: 381-389).\nThe cell surface molecules on established cell lines in culture may not be the same as those molecules on primary bladder cancer cells. It was assessed if PLZ4 could bind to bladder cancer cells from patients. Beads coated with PLZ4 could bind to primary bladder cancer cells from patients (FIGS. 3A and B). […] In one patient, both normal tissue and bladder cancer tissue from the same cystectomy specimen were available."}, "5637 cells": {"system": "5637 cells", "test": "Flow cytometry binding affinity on 5637 cells", "design": "species or system human", "details": "PLZ4-biotin with streptavidin-PE", "protocol": "All of the following steps were done on ice. 5×10^5 5637 cells were washed 3 times with 1 ml cold PBS (pH 7.4)-BSA (1%), re-suspended with 300 μl cold BSA (5%)-PBS (pH 7.4), and then incubated for 1 hour on ice. The cells were centrifuged and suspended with 50 μl PLZ4-biotin solution at 800, 400, 200, 100, 50, 25, 10, 5, 2.5, 1, 0.1, and 0 μM, and incubated for 1 hour on ice. Cells treated without PLZ4-biotin was considered as a control. After washing 6 times with 1 ml cold PBS-Tween-20 (0.05%) buffer, cells were re-suspended with 50 μl streptavidin (SA)-PE (1:500 in PBS-BSA, 1%) (1 mg/ml, Invitrogen, Carlsbad, Calif.), incubated for 1 hour on ice, washed with PBS (pH 7.4) 3 times, re-suspended with 500 μl PBS (pH 7.4), and analyzed using a Coulter Epics XL-MCL flow cytometer (Beckman Coulter, Inc.). The experiment was repeated three times. The mean value was expressed in FIG. 4.\nNext, it was determined if fluorescence cell sorting could be used to identify bladder cancer cells. PLZ4 peptide conjugated to biotin through hydrophilic linkers was synthesized. Biotinylated PLZ4 was then incubated with streptavidin-PE to generate PLZ4-PE conjugate through the strong binding of biotin and streptavidin. […] The binding affinity (Kd) is around 30 μM."}, "[4]": {"system": "Human bladder cancer cell line 5637", "test": "Whole cell binding assay of Example 2, 5637 positive control", "details": "PLZ4 beads, 10^6 cells/ml", "protocol": "(§1) This experiment was repeated 3 times for cell lines. […] 5637 human bladder cancer cell line; b. […] The average diameter of the beads is 90 μm. […] This experiment was repeated for 3 times. (200×)\n(§2) To determine the binding of PLZ4 to canine TCC cell lines, whole cell binding assay was performed. PLZ4 was synthesized on TentaGel S NH2 resin beads (Rapp Polymere Gmbh, Germany) (Pegram, et al., J Clin Oncol (1998) 16:2659-2671), and incubated with single suspensions of five different canine carcinoma cell lines including K9TCC-PU, K9TCC-PU-AxA, K9TCC-PU-In, K9TCC-PU-AxC, and K9TCC-PU-Nk (kindly provided by Deborah Knapp at Purdue University, West Lafayette, Ind., USA) at 10^6 cells/ml. The negative control was normal urothelial cells obtained from dogs that were euthanized due to non-bladder-related disorders. Human bladder cancer cell line, 5637 were served as the positive control. If PLZ4 bound to cells in suspension, then the bead surface was covered with cells. Over 95% of the bead surface was covered with 5637 and K9TCC cells (FIG. 7A-a and b, respectively)."}, "[5]": {"system": "normal canine bladder urothelial cells", "test": "Whole cell binding assay of Example 2, normal canine urothelial cells", "details": "PLZ4 beads", "protocol": "as §1, §2"}, "[6]": {"system": "bladder cells from a dog with chronic cystitis", "test": "Whole cell binding assay of Example 2, chronic cystitis bladder cells", "design": "species or system canine", "details": "PLZ4 beads", "protocol": "as §1, §2"}, "K9TCC-PU-In": {"system": "K9TCC-PU-In", "test": "Binding affinity by PLZ4-biotin / avidin-HRP on fixed K9TCC-PU-In cells", "design": "species or system canine", "details": "restated in b239 without cell line, read-out: Kd50", "protocol": "FIG. 8A-B. Binding affinity and biological effects of PLZ4 against canine TCC cell lines. A. Binding affinity of PLZ4 against K9TCC-PU and K9TCC-PU-In. Twenty thousands of K9TCC-PU and K9TCC-PU-In were seeded in 96 well plates. After culture for 24 hours, cells were fixed and incubated with different concentrations of PLZ4-biotin for 1.5 hours following avidin-HRP for another 1 hour. Cells treated with avidin-HRP only were served as background control. The color was developed using TMB substrate and read by ELISA readers. The experiment was performed in triplicates and repeated for 3 times. The mean value of the 3 experiments were shown. B. Biological effects of PLZ4 on canine TCC cell lines. Ten thousand K9TCC-PU-In and K9TCC-PU cells were seeded in the 96 well plates and treated with increasing concentrations of PLZ4 or PBS for 2 days. The cell proliferation assay was assessed by WST-8 assay per manufacturer's protocol. Cells treated with PBS were used as 100% control. Each group was performed in triplicate, repeated for 3 times. Mean values at each concentration are presented.\nTo further quantify the binding affinity, K9TCC-PU and K9TCC-PU-In cells were seeded in 96 well plates, fixed, and incubated with increasing concentrations of PLZ4-biotin followed by avidin-HRP. […]"}, "[7]": {"system": "cancer cells from canine bladder TCC clinical specimen", "test": "Binding to canine bladder TCC clinical specimen cells"}, "[8]": {"system": "bladder lymphoid hyperplasia specimen", "test": "Binding to canine bladder lymphoid hyperplasia specimen", "details": "data not shown"}}, "note": "pKd: −log10 of the molar value. “Also recorded” adds a separate entry of the source. Positions of bridges follow the written chain, without caps; N, C: chain ends. Non-standard residues stand in square brackets, D forms with d. No end group written: not given here.", "data": [{"substance": "cQDGRMGFc ([dC]QDGRMGF[dC]; disulfide 1-9 (inferred)) [PLZ4, bladder cancer-specific ligand peptide]", "values": [{"measurement": "binding to whole blood cells", "setting": "whole blood cells", "value": "did not bind"}, {"measurement": "binding to 12 cell lines with different origins", "setting": "[1]", "value": "did not bind to 10 out of 12 cell lines; also recorded: only bought to one of 12"}, {"measurement": "binding to cells from urine of patients actively treated with BCG", "setting": "[2]", "value": "did not bind"}, {"measurement": "binding to cells from the normal specimen of the same bladder", "setting": "[3]", "value": "not to the cells from the normal specimen"}, {"measurement": "pKd", "setting": "5637 cells", "value": "~4.52"}, {"measurement": "bead surface covered with cells", "setting": "[4]", "value": "Over 95%"}, {"measurement": "binding to normal canine bladder urothelial cells", "setting": "[5]", "value": "no cell binding"}, {"measurement": "binding to bladder cells from a dog with chronic cystitis", "setting": "[6]", "value": "no cell binding"}, {"measurement": "pKd", "setting": "K9TCC-PU-In", "value": 4.99}, {"measurement": "binding to primary canine bladder cancer cells from a clinical specimen", "setting": "[7]", "value": "could bind to primary canine bladder cancer cells; also recorded: could bind to cancer cells from one canine bladder TCC clinical specimen"}, {"measurement": "binding to a bladder lymphoid hyperplasia specimen", "setting": "[8]", "value": "not to a bladder lymphoid hyperplasia specimen"}]}]}
